Key:
[1] = test system: rno expression in HL-60 cells; assay: RT-PCR analysis of rno expression in HL-60 cells treated with differentiating agents; format: cell-based, human; conditions: for rno expression (RT-PCR), sGC/cGMP pathway agents alone: ODQ 10 μM, 8-Br-cGMP 3 mM; for time course of rno induction (RT-PCR): 125 μM DETA-NO or 1.2% DMSO added once, 24, 48, 72 hr; for rno expression (RT-PCR): DETA-NO 125 μM, DMSO 1.2% (v/v), VD3 100 nM
Description: FIG. 4 is a […] showing the effect of differentiating agents on rno expression in HL-60 cells. For the upper panel, HL-60 cells were treated with DETA-NO, DMSO, or VD3 for 24 hours before analysis of rno expression by RT-PCR. Lane 1, no treatment control; Lane 2, DETA-NO; Lane 3, DMSO; Lane 4, VD3; Lane 5, water blank (no template); Lane 6, reverse transcriptase omitted from the reaction mixture; Lane 7, RT-PCR performed using RNA isolated from normal PMN (positive control). The positions of the size marker (MW) are indicated on the left. The positions of rno-1 and rno-3 are shown on the right. Referring to the lower panel, RT-PCR analysis of actin expression was used to control for the quality and integrity of the cDNA that was prepared from the various samples. Lane 1, no treatment control cells; Lane 2, cells treated with DETA-NO, Lane 3, cells treated with DMSO; Lane 4, cells treated with VD3; Lane 5, water blank (no template), Lane 6, RT-PCR performed using RNA isolated from normal PMN.
FIG. 5 illustrates the time course of rno induction in HL-60 cells. For the results of the upper panel, HL-60 cells were treated with 125 μM DETA-NO or 1.2% DMSO, and expression of rno was analyzed by RT-PCR at three different time points. MW, 100 bp DNA ladder; Lane 1, no-treatment control cells; Lane 2, cells treated with DETA-NO for 24 hr; Lane 3, cells treated with DETA-NO for 48 hr; Lane 4; cells treated with DETA-NO for 72 hr; Lane 5, cells treated with DMSO for 24 hr; Lane 6, cells treated with DMSO for 48 hr; Lane 7, cells treated with DMSO 72 hr; Lane 8, water blank (no template). The position of rno-1 is indicated on the left. For the results of the lower panel, RT-PCR analysis of actin expression was used to control for the quality and integrity of the cDNA that was prepared from the various samples. MW, 100 bp DNA ladder; Lane 1, no-treatment control cells; Lane 2, cells treated with DETA-NO for 24 hr; Lane 3, cells treated with DETA-NO for 48 hr; Lane 4; cells treated with DETA-NO for 72 hr; Lane 5, cells treated with DMO for 24 hr; Lane 6, cells treated with DMSO for 48 hr; Lane 7, cells treated with DMSO 72 hr. The position of actin is indicated on the left. DETA-NO upregulates rno within 24 hours and expression returns to baseline by 48 hours. DMSO also upregulates rno within 24 hours but expression persists through the entire 72 hr of exposure.
FIG. 6 illustrates the effect of cGMP on rno expression. In the upper pannel, HL-60 cells were treated with DETA-NO, 8Br-cGMP, ODQ, or ODQ and DETA-NO for 24 hours. Subsequently rno expression was analyzed by using RT-PCR. Lane 1, molecular mass standards (100 bp ladder); Lane 2, no-treatment control cells; Lane 3, DETA-NO; Lane 4, 8-Br-cGMP; Lane 5, ODQ; Lane 6, ODQ and DETA-NO; Lane 7, water blank (no cDNA template); Lane 8, reverse transcriptase omitted from one of the reaction mixtures. The position of rno-1 is indicated on the left. In the lower panel, RT-PCR analysis of actin expression was used to control for the quality and integrity of the cDNA that was prepared from the various samples. Lane 1,100 bp DNA ladder; Lane 2, no-treatment control; Lane 3, cells treated with DETA-NO; Lane 4, cells treated with 8Br-cGMP; Lane 5, cells treated with ODQ; Lane 6, cells treated with ODQ and DETA-NO. The position of actin is indicated on the left. Upregulation of rno by DETA-NO is cGMP-independent.
Referring to FIG. 4, RT-PCR was used to compare the effects of three differentiating agents on expression of rno. NO induces HL-60 cells to differentiate along the monocytic lineage. Magrinat, G et al. (1992) Blood, 80:1980-1986. DMSO is a granulocytic differentiation agent, while VD3 induces monocytic differentiation. Trayner, ID et al. (1998) Leuk Res., 22:537-547.
Referring to FIG. 4, both NO and DMSO induce expression of rno. To determine if the time-course of induction is similar, HL-60 cells were incubated with either DETA-NO or DMSO for 72 hr. […]

[2] = Half-life of NO release of DETA-NO; format: physicochemical; conditions: by the time the 48 hr sample was harvested, from half-life of 20 hr
Description: HL-60 cells were from ATCC (Rockville, Md.) and were cultured at 37° C. in a 5% CO2 humidified atmosphere at a density of 150,000 cells/ml. The culture medium consisted of RPMI-1640 supplemented with 10% fetal bovine serum and 1% Penicillin (10,000 U/mL)/Streptomycin (10 mg/mL). (Z)-1-[2-(2-Aminoethyl)-N-(2-ammonioethyl)amino]diazen-1-um-1,2-diolate] (DETA-NO) was used as a source of NO. DETA-NO belongs to the diazenium diolate class of NO donors and releases 2 molecules of NO per carrier moiety with a half-life of NO release of 20 hours. Keefer, L K et al. (1996) Methods in Enzymology.268:281-293. The effects of the following other differentiating agents on expression of rno were also investigated: dimethyl sulfoxide (DMSO); all-trans retinoic acid (ATRA); and vitamin D3 (VD3). DETA-NO, DMSO, ATRA, or VD3 were added once to HL-60 cells at the time of culture initiation at concentrations of 125 μM, 1.2% (v/v), 1 μM, and 100 nM, respectively. For studies of the role of the soluble guanylate cyclase (sGC)/cGMP signal transduction pathway in NO upregulation of rno, the sGC inhibitor 1H-[1,2,4]oxadiazolo[4,3-a]quinoxalin-1 -one (ODQ) and the cell permeable cGMP analogue 8-Br-cGMP at concentrations of 10 μM were used and 3 mM, respectively. Brunner, F et al. (1996) J Pharmacol Exp Ther. 277:48-53; Boss, GR.(1989) Proc Natl Acad Sci USA. 86:7174-7178. […]

[3] = test system: rno expression in HL-60 cells; assay: Northern analysis of rno expression in DETA-NO treated HL-60 cells; format: cell-based, human; conditions: DETA-NO 125 μM, 24 hr, DP-3A probe
Description: FIG. 1 is a northern blot showing the induction of rno expression by NO. HL-60 cells were treated for 24 hr with DETA-NO (125 μM). Total cellular RNA was isolated and northern analysis was performed by using radiolabelled rno DP-3A as a probe as shown in the upper panel. […] The positions of the bands representing 28S and 18S ribosomal RNA are indicated on the left. Lane 1, RNA from control, untreated cells; Lane 2, RNA from DETA-NO treated cells.
The following two sets of cells were used for analysis of the effects NO on gene expression: control HL-60 cells incubated in media for 24 hours and HL-60 cells treated with 125 μM DETA-NO (a NO generating compound) for the same time period. Poly (A^+) RNA was prepared from the two sets of cells, and this material was used as template for the synthesis of double stranded cDNA. Following digestion with BglII, a set of primer/adapters was ligated to aliquots of each sample, and this cDNA was amplified by PCR to generate representations from the control and treated populations. By using the technique of RDA modified for cDNA, gene expression between the control and DETA-NO treated cells was compared. Lisitsyn, N et al. (1993) Science.259:946-951; Hubank, M & Schatz, D G (1994) Nucl Acids Res. 22:5640-5648; Kanai, N et al. (1999) Am J Hematol., 61:221-231. In the present study, two sets of subtraction/hybridizations were performed in parallel. […]

In the case of `Nc1nc2c(nc(Br)n2[C@@H]2O[C@@H]3COP(=O)(O)O[C@H]3[C@H]2O)c(=O)[nH]1` [8-Br-9 cGMP], the “rno expression (RT-PCR), sGC/cGMP pathway agents alone” value ([1]; 24 hours) is reported as “did not induce rno expression”.

In the case of `CC1=C(/C=C/C(C)=C/C=C/C(C)=C/C(=O)O)C(C)(C)CCC1` [ATRA, all-trans retinoic acid], the “rno expression (RT-PCR), data not shown” value ([1]; ATRA 1 μM, even after 72 hr of exposure) is reported as “no effect on rno expression”.

With `NCCN(CCN)/[N+]([O-])=N/O` [DETA-NO] the “decrease of functional activity of the reagent” value [2] was “more than 75%”, the “time course of rno induction (RT-PCR)” value [1] was “evident at 24 hr and returned to baseline by 48 hr” and the “rno expression (RT-PCR)” value ([1]; 24 hours) was “upregulated”. The “rno expression (northern blot)” value [3] was “upregulates rno expression”.

For `C[S+](C)[O-]` [DMSO, dimethyl sulfoxide], the “time course of rno induction (RT-PCR)” value [1] was “induced expression of rno within 24 hr, however, expression persisted through the entire 72 hr observation period” and the “rno expression (RT-PCR)” value ([1]; 24 hours) was “upregulated”.

For `O=c1onc2cnc3ccccc3n12` [ODQ, 1H-[1,2,4]oxadiazolo[4,3-a]quinoxalin-1-one], the “rno expression (RT-PCR), sGC/cGMP pathway agents alone” value ([1]; 24 hours) was “did not upregulate rno expression” and the “effect of sGC inhibitor on induction of rno by DETA-NO (RT-PCR)” value ([1]; ODQ and DETA-NO in combination, 24 hours) was “did not prevent the induction of rno by DETA-NO”.

In the case of `C=C1CC[C@H](O)C/C1=C/C=C1\CCC[C@]2(C)[C@@H]([C@H](C)CCCC(C)C)CC[C@@H]12` [VD3, vitamin D3], the “rno expression (RT-PCR)” value ([1]; 24 hours) is reported as “not by VD3”.

— US20010029033A1, “Novel gene rno upregulated in leukemia cells by nitric oxide and DMSO” (priority 2000, published 2001)
